Test results published in the supplement of paper PMC13207355.
Where a name gives a salt, the structure may show the parent alone.

Legend:
Conditions in all cases: exposure time: 72 h
[1] = system: E13 (patient-derived glioblastoma stem cells of classical subtype); test: surviving fraction (nuclei count normalised to DMSO); higher = more cells surviving (less toxic)
[2] = system: E21 (patient-derived glioblastoma stem cells of mesenchymal subtype); test: as above
[3] = system: E28 (patient-derived glioblastoma stem cells of classical subtype); test: as above
[4] = system: E31 (patient-derived glioblastoma stem cells of proneural subtype); test: as above
[5] = system: E34 (patient-derived glioblastoma stem cells of proneural subtype); test: as above
[6] = system: E57 (patient-derived glioblastoma stem cells of mesenchymal subtype); test: as above
[7] = system: FT3469 (normal neural stem cell line); test: as above
[8] = system: E13; test: phenotypic distance (Euclidean, principal components) from DMSO controls (arbitrary units); higher = stronger morphological change
[9] = system: E21; test: as above
[10] = system: E28; test: as above
[11] = system: E31; test: as above
[12] = system: E34; test: as above
[13] = system: E57; test: as above
[14] = system: FT3469; test: as above
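Throughout, for phenotypic distance (Euclidean, principal components) from DMSO controls: cell Painting imaging in 384-well plates, CellProfiler features reduced to at least 20 principal components, Euclidean distance versus same-plate DMSO vehicle wells (0.1% v/v), median over six images per well.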
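Throughout, for surviving fraction (nuclei count normalised to DMSO): nuclei counted by high-content imaging of Hoechst-stained cells in laminin-coated 384-well plates, relative to 0.1% DMSO vehicle wells, with staurosporine as cell-death control.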

CC[C@H]1CN2CCc3cc(OC)c(OC)cc3[C@@H]2C[C@@H]1C[C@H]1NCCc2cc(OC)c(OC)cc21 [Emetine dihydrochloride hydrate]
Conditions	phenotypic distance	surviving fraction
[1], 4.1 nM	–	0.771
[1], 12.3 nM	–	0.923
[1], 37 nM	–	0.769
[1], 111.1 nM	–	0.481
[1], 333.3 nM	–	0.319
[1], 1000 nM	–	0.241
[1], 3000 nM	–	0.2
[2], 4.1 nM	–	0.907
[2], 12.3 nM	–	0.921
[2], 37 nM	–	0.816
[2], 111.1 nM	–	0.347
[2], 333.3 nM	–	0.223
[2], 1000 nM	–	0.153
[2], 3000 nM	–	0.173
[3], 4.1 nM	–	0.969
[3], 12.3 nM	–	1.05
[3], 37 nM	–	0.901
[3], 111.1 nM	–	0.385
[3], 333.3 nM	–	0.258
[3], 1000 nM	–	0.315
[3], 3000 nM	–	0.3
[4], 4.1 nM	–	0.927
[4], 12.3 nM	–	0.842
[4], 37 nM	–	0.667
[4], 111.1 nM	–	0.313
[4], 333.3 nM	–	0.143
[4], 1000 nM	–	0.179
[4], 3000 nM	–	0.101
[5], 4.1 nM	–	0.908
[5], 12.3 nM	–	0.885
[5], 37 nM	–	0.818
[5], 111.1 nM	–	0.497
[5], 333.3 nM	–	0.404
[5], 1000 nM	–	0.387
[5], 3000 nM	–	0.426
[6], 4.1 nM	–	0.975
[6], 12.3 nM	–	0.918
[6], 37 nM	–	0.84
[6], 111.1 nM	–	0.354
[6], 333.3 nM	–	0.157
[6], 1000 nM	–	0.173
[6], 3000 nM	–	0.14
[7], 4.1 nM	–	1.12
[7], 12.3 nM	–	1.05
[7], 37 nM	–	0.997
[7], 111.1 nM	–	0.676
[7], 333.3 nM	–	0.511
[7], 1000 nM	–	0.492
[7], 3000 nM	–	0.535
[8], 4.1 nM	1.31	–
[8], 12.3 nM	0.882	–
[8], 37 nM	1.91	–
[8], 111.1 nM	4.48	–
[8], 333.3 nM	4.34	–
[8], 1000 nM	5.43	–
[8], 3000 nM	6.58	–
[9], 4.1 nM	1.08	–
[9], 12.3 nM	0.979	–
[9], 37 nM	0.851	–
[9], 111.1 nM	6.33	–
[9], 333.3 nM	4.77	–
[9], 1000 nM	3.91	–
[9], 3000 nM	3.66	–
[10], 4.1 nM	0.561	–
[10], 12.3 nM	0.727	–
[10], 37 nM	1.13	–
[10], 111.1 nM	2.77	–
[10], 333.3 nM	3.25	–
[10], 1000 nM	3.1	–
[10], 3000 nM	3.67	–
[11], 4.1 nM	1.22	–
[11], 12.3 nM	1.2	–
[11], 37 nM	2.2	–
[11], 111.1 nM	5.26	–
[11], 333.3 nM	5.72	–
[11], 1000 nM	4.54	–
[11], 3000 nM	5.99	–
[12], 4.1 nM	0.73	–
[12], 12.3 nM	0.706	–
[12], 37 nM	0.904	–
[12], 111.1 nM	2.93	–
[12], 333.3 nM	3.91	–
[12], 1000 nM	4.94	–
[12], 3000 nM	4.59	–
[13], 4.1 nM	1.02	–
[13], 12.3 nM	1.01	–
[13], 37 nM	0.848	–
[13], 111.1 nM	5.15	–
[13], 333.3 nM	6.55	–
[13], 1000 nM	6.5	–
[13], 3000 nM	6.32	–
[14], 4.1 nM	0.688	–
[14], 12.3 nM	0.903	–
[14], 37 nM	0.792	–
[14], 111.1 nM	3.79	–
[14], 333.3 nM	3.87	–
[14], 1000 nM	3.19	–
[14], 3000 nM	3.42	–
